Data on 9 compounds can be found in patent US11472758B2, “Methods for obtaining compounds from a plant or fungus material, respective compositions, and uses thereof” (Real Isolates, LLC, priority 2020, dated 2022).

For series [1], the target named is T1, CB2R (Homo sapiens, UniProt P34972). Conditions: known; cited from earlier work.
Another series has as its system volunteer with HNPP. Nature of the series: Human trial of HCD or MCD for hereditary neuropathy with liability to pressure palsy (HNPP). Type of series: in vivo. As for the experimental part: A volunteer has a rare genetic disorder, HNPP, resulting in neuropathic pain, muscle weakness, numbness, and loss of fine motor skills. The volunteer previously needed high doses (more than 5 g/day) of medical Cannabis to receive beneficial effects, but reduced overall intake when they began taking HCD and MCD. Their current dose schedule is 15-30 mg of HCD per day (˜7 mg-15 mg CBD) and MCD as needed. They are not taking any other medication.

The subject of series [2] is volunteer with severe Crohn's disease. Put plainly: Human trial of HCD or MCD for Crohn's disease. Type of series: in vivo. From the text: A volunteer with severe Crohn's disease and who has had over 50 hospital emergency visits since diagnosis in 2015. Treatment with multiple pharmaceutical agents were unsuccessful. They stopped using all pharmaceutical agents in 2018. In August 2020, they began using HCD and MCD. They were able to completely stop a Crohn's disease flare in November 2020 using two consecutive doses of MCD.

The subject of series [3] is volunteer with severe, chronic migraines. Put plainly: Human trial of HCD or MCD for chronic migraine. It is filed as in vivo.
Series [4] has as its system volunteer with a developmental disorder. Nature of the series: Human trial of HCD or MCD for autism spectrum/schizophrenia spectrum disorder. It is filed as in vivo. From the text: An assigned person at birth nonbinary volunteer with a history of a developmental disorder whose symptoms span both Autism Spectrum Disorder and Schizophrenia Spectrum Disorder. They stopped taking all psychopharmaceutical agents in 2010 after beginning to use medical Cannabis daily. Outside of 3 relapses due to over 14+ days without Cannabis, they have had no issues managing their symptoms since. Due to decreased symptoms, they are highly functional, fully independent, and no longer meet criteria for their previous diagnoses. In August 2020, they began using the HCD and MCD. They have not missed a single dose of HCD in 5 months; it is their longest span of completely continuous compliance.

Series [5] deals with T2, CB1R (Homo sapiens, UniProt P21554). Particulars: known; cited from earlier work.
For the next series, the system named is mice. Conditions: cited from earlier work.
Series [6] addresses T2, CB1R. The arrangement: host or cells: brain synaptosomal samples; COS-7 over-expression. Particulars: brain synaptosomal samples; COS-7 over-expression model; cited from earlier work.
For series [7], the target named is T1, CB2R. On the set-up: host or cells: brain synaptosomal samples; COS-7 over-expression. Conditions: brain synaptosomal samples; COS-7 over-expression model; cited from earlier work.
The subject of a further series is 15-lipoxygenase (15-LOX). Particulars: has been shown; cited from earlier work.
The conditions of series [8]: has been shown; cited from earlier work.
Series [9] concerns CB1R. Conditions: performed similarly to THC, but at a lower potency; cited from earlier work.
Setting [10] is: smoking/inhalation at 575-600° F., 25 mg CBD isolate.
The mark [11] stands for this setting: smoking/inhalation at 575-600° F., 7 mg CBD isolate.

T1 sequence (P34972 whole entry): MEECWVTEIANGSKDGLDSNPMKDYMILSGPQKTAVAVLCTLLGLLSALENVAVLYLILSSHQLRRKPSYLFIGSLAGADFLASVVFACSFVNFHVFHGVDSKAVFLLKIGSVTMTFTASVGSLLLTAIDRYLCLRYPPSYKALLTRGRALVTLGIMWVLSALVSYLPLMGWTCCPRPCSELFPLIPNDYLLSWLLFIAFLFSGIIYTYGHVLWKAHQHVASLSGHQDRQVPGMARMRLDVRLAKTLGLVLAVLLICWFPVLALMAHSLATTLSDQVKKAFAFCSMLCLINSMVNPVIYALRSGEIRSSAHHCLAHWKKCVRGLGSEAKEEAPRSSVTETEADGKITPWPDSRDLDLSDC
T2 sequence (P21554 whole entry): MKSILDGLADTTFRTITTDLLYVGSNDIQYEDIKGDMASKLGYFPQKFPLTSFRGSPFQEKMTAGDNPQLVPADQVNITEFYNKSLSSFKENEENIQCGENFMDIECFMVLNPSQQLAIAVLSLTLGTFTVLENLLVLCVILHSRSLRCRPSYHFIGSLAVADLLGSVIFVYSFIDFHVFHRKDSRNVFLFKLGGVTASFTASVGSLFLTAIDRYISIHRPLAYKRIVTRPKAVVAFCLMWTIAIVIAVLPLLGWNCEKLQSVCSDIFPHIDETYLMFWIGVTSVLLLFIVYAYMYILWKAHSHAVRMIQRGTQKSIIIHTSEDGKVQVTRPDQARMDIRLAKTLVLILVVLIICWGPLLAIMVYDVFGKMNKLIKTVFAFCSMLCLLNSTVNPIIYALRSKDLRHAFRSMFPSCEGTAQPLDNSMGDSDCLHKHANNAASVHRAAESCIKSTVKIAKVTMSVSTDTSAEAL

As to `CCCCCc1cc(O)c2c(c1)OC(C)(C)[C@@H]1CCC(C)=C[C@@H]21` [THC, Δ9-tetrahydrocannabinol], the “Activity at CB2R” value at CB2R [1] is “partial agonist activity at nanomolar concentrations”.
Turning to `C=C(C)[C@@H]1CCC(C)=C[C@H]1c1c(O)cc(CCCCC)cc1O` [CBD, cannabidiol], the “Effect after oral administration” value with volunteer with HNPP (oral, 15-30 mg HCD or same dose of commercially available CBD isolate) was “no noticeable effect”. In the series on volunteer with HNPP (setting [10]), the “Time at which effects began to wear off” value worked out at 45 min, the “Time at which no noticeable effects remained” value was 60 min and the “Time at which pain relief began” value turned out to be 10 min. The “Oral dose needed to achieve results similar to 15 mg HCD” value in series [2] (commercially available CBD isolate, two or more consecutive days) is listed as “over 50 mg”. For the same compound, in series [2] (setting [11]), the “Time at which effects began to wear off” value was 45 min; the “Time at which no noticeable effects remained” value is 60 min; the “Time of decreased pain, stress, and anxiety” value came out at 15 min. The Effect on migraines entry in series [3] (commercial CBD isolate 50 mg/day titrated up to 250 mg/day, after two months) was “marked decrease in the number and severity of migraines”. Also, the “Oral dose needed to achieve results similar to 15 mg HCD” value in series [3] (commercially available CBD isolate, anxiety, migraine threshold, migraine severity) was “over 200 mg”. Also, the “After effect observed the next day” value in series [4] (400-600 mg commercially available CBD isolate) was ““hangover””. Moreover, in series [4] (doses of 50 mg/day of CBD), the Negative side effects result was “forgetfulness/brain fog, apathy, decreased endurance, decreased strength, interrupted sleep routine”. Also, the “Dose used to abort panic attacks and/or break perseverative loops” value in [4] (oral, same efficacy) lay within 400 to 600 mg. Besides, the “Potency compared to orally ingested hemp Cannabis distillate (times less potent)” value in series [4] (orally ingested, Example 20) is listed as “at least 10 times”. Also, the “Activity at CB1R” value on CB1R [5] is reported as “neutral antagonist activity at nanomolar concentrations”. Besides, the “Activity at CB2R” value at CB2R [1] was “neutral antagonist activity at nanomolar concentrations”.
On to `CCCCCc1cc(O)c2c(c1)OC(C)(C)c1ccc(C)cc1-2` [CBN, cannabinol], for which, in the series on mice, the Pentobarbital-induced sleeping time entry is recorded as “double”.
For the compound `CCCCCc1cc(O)c2c(c1)OC(C)(C)C1CCC(C)C=C21` (centres unmarked) [Δ10-Tetrahydrocannabinol, Δ10-tetrahydrocannabinol], the “Interaction with CB1R” value on CB1R [5] is recorded as “interact with CB1R”.
For `CCCCCOc1cc(CCCCC)cc2c1-c1cc(C)ccc1C(C)(C)O2` [opeCBN, o-pentylcannabinol], the “Potency at CB1 receptor relative to CBN” value at CB1R [6] was “vastly increase its potency”. Further, at CB2R [7], the “Potency at CB2 receptor relative to CBN” value was “vastly increase its potency”.
As to `CCCCCc1cc(OC)c2c(c1)OC(C)(C)c1ccc(C)cc1-2` [omCBN, o-methylcannabinol], the “Potency at CB1 receptor relative to CBN” value at CB1R [6] is on record as “vastly increase its potency”. Also, on CB2R [7], the “Potency at CB2 receptor relative to CBN” value is given as “vastly increase its potency”.
Take `C=C(C)[C@@H]1CCC(C)=C[C@H]1c1c(O)cc(CCCCC)cc1OC` [omCBD, o-methylcannabidiol]: the 15-LOX inhibition entry in the series on 15-lipoxygenase (15-LOX) is “selective and potent”.
In the case of `C=C1CC[C@@H]2[C@@H](C1)c1c(O)cc(CCCCC)cc1OC2(C)C` [exo-tetrahydrocannabinol], in series [8], the Antibacterial activity entry is “potent antibacterial activity”. Besides, on CB1R [5], the “Interaction with CB1R” value is “interact with CB1R”. Also, the “Activity in drug discrimination trials” value in the series with CB1R [9] is “partial agonist activity”.
Turning to `CCCCCc1cc(OCCC)c2c(c1)OC(C)(C)c1ccc(C)cc1-2` [oprCBN, o-propylcannabinol], the “Potency at CB1 receptor relative to CBN” value at CB1R [6] is “vastly increase its potency”. For the same compound, the “Potency at CB2 receptor relative to CBN” value at CB2R [7] is “vastly increase its potency”.
